This is an account of results in US20240102057A1, “METHODS AND COMPOSITIONS USEFUL FOR THE PRODUCTION OF 4-VINYLPHENOL” (THE REGENTS OF THE UNIVERSITY OF CALIFORNIA, priority 2022, published 2024).

The subject of one series is E. coli. The following applies: cited from earlier work; for toxicity of organic solvent to E. coli: literature reports [10, 16, 17, 25].
For another series, the system named is PAD enzyme. Particulars: literature reports [10, 16, 17, 25]; cited from earlier work.
The subject of a further series is Cg and Cg phdA- strains. The experiment in a line: Growth (cell density) in tryptic soy broth supplemented with 4VP or CA. It counts as cell-based, Corynebacterium glutamicum. Particulars: 24 h, FIG. 1a, b. The method, then: (§1) To test whether the PAD strains were able to convert CA to 4VP and evaluate their tolerance to different concentrations of substrate and product, growth experiments were performed in tryptic soy broth supplemented with 0.25 or 0.5 g/L of 4VP, or 1, 5 or 10 g/L of CA. This rich medium was used to provide all the organisms with glucose and amino acids for growth and cell maintenance and allow for continuous PAD protein production during the 4VP production process. The bacterial cell density was measured at the time of inoculation and after 24 h of incubation, and PAD expression was induced at the beginning of the cultivations.
(§2) Cultivations were performed in 48-well flat bottom clear plates (Corning, USA) when an organic overlay was not added, in 48-well FlowerPlates (m2p, Germany) when an overlay was added to rich medium, and in 14 mL round-bottom plastic tubes for lignin liquors with an overlay. Seed cultures of all strains listed in Table 1 were started by inoculating cells from agar plates into tubes with 5 mL of tryptic soy broth and incubating at 30° C. with vigorous shaking for 12 h. For the experiments in the clear plates, inocula were prepared by mixing 1 mL of the seed cultures with 9 mL of fresh tryptic soy broth and incubated for 8 h. […] The optical density at 595 nm was measured using a DTX880 plate reader (Beckton-Coulter, USA).

The next series deals with all Bacillus species. Described as above. It is filed as cell-based, Bacillus subtilis, Bacillus amyloliquefaciens. The following applies: 24 h, FIG. 1g-i. The protocol: as §1, §2
Series [1] in a line: Distribution between aqueous phase and organic overlay in biphasic cultivations (HPLC). It counts as physicochemical. The source says: One example is the extraction of 4VP from the aqueous phase with octanol in a continuous flow-bed reactor containing immobilized E. coli cells. […] Therefore, we compared the performance of octanol to other mid-chain fatty alcohols with slightly longer alkane chains, decanol and undecanol, when added as overlays to the cultivation media (20% of the aqueous phase volume). To obtain high product concentrations and identify any limitations to the amount of 4VP that can be extracted with the overlays, the four recombinant strains were incubated in the presence of 25 or 75 g/L of CA.
The lignocellulose-derived CA was used to cultivate the 4VP producing strains. […] However, this culture system is not amenable for repeated sampling of aqueous and organic phases to quantify metabolites or for monitoring cell growth in the presence of overlays and dark lignin liquors. Therefore, the incubations in CA-rich liquors were performed in culture tubes in presence of an undecanol overlay, and the OD, CA and 4VP concentrations were measured at 0, 12 and 24 h after inoculation. […]
CA and 4VP were quantified by HPLC in samples taken from the aqueous and organic phases of the cultivations or lignin liquors after diluting with water (aqueous samples) or pure acetonitrile (organic samples). […]

A further series concerns microbes. The following applies: literature report [3]; cited from earlier work.
The subject of another series is E. coli (Ec). Kind of series: Growth (cell density) in tryptic soy broth supplemented with 4VP or CA. It is filed as cell-based, Escherichia coli. The following applies: Ec and Ec PAD, 24 h, FIG. 1c, f. The protocol: as §1, §2
The subject of the next series is all tested organisms. Described as above. It is filed as cell-based, E. coli, B. subtilis, C. glutamicum, B. amyloliquefaciens. Particulars: tryptic soy broth with 0.25 or 0.5 g/L 4VP, 24 h. The method, then:
as §1, §2

Consider `CCCCCC` [hexane], for which the “toxicity of organic solvent to E. coli” value in the series on E. coli is listed as “significant toxicity”. Besides, the “effect of organic solvent on PAD enzyme activity” value in the series on PAD enzyme is “inhibition”.

For `O=C(O)/C=C/c1ccc(O)cc1` [CA, p-coumaric acid], the “CA concentration in the presence of which strains are able to grow (tolerance)” value in the series on Cg and Cg phdA- strains was “up to 10 g/L”. In addition, in the series with all Bacillus species, the “CA concentration above which strains are unable to grow” value is “more than 1 g/L”. In series [1] (octanol, decanol or undecanol overlay (20% of aqueous volume), tryptic soy broth with 25 or 75 g/L CA), the “share of CA not consumed found in the aqueous phase” value is reported as “more than 90%”.

Consider `CCCCCCCCO` [octanol], for which the “toxicity of organic solvent to E. coli” value in the series on E. coli is “significant toxicity”. Moreover, the “effect of organic solvent on PAD enzyme activity” value with PAD enzyme is given as “inhibition”. Besides, the “toxicity of solvent to microbes” value in the series with microbes is listed as “significant toxicity”.

In the case of `C=Cc1ccc(O)cc1` [4VP, 4-vinylphenol], the “4VP concentration displaying growth inhibition” value in the series on E. coli (Ec) turned out to be 0.25 g/L. In the series on all tested organisms, the “toxicity of 4VP” value is listed as “very toxic”. Besides, in series [1] (undecanol overlay, lignin liquors from corn stover residue), the “share of product extracted in the organic phase” value came to 97%. Moreover, the “toxicity to E. coli relative to CA” value in the series on E. coli (literature report [12]) is recorded as “significantly more toxic to E. coli than CA”.
